Laboratory results published in PubChem BioAssay AID1259407 (Chemical Carcinogenesis Research Information System (CCRIS), 2018).
Activity calls are given as the source filed them. How the calls were made is not given here.

Test system: CCRIS mutagenicity, Ames/micronucleus/aberration tests
Test: CCRIS mutagenicity studies
[1] = Test System: AMES SALMONELLA TYPHIMURIUM, Strain/Indicator: TA98, Metabolic Activation: NONE, Method: PREINCUBATION
[2] = Test System: AMES SALMONELLA TYPHIMURIUM, Strain/Indicator: TA100, Metabolic Activation: NONE, Method: PREINCUBATION
[3] = Test System: AMES SALMONELLA TYPHIMURIUM, Strain/Indicator: TA98, Metabolic Activation: NONE, Method: STANDARD PLATE
[4] = Test System: AMES SALMONELLA TYPHIMURIUM, Strain/Indicator: TA100, Metabolic Activation: NONE, Method: STANDARD PLATE

`O=[N+]([O-])c1ccc2c(c1)oc1ccc([N+](=O)[O-])cc12` was tested, and the mutagenic call (Test System: AMES SALMONELLA TYPHIMURIUM, Strain/Indicator: TA98(1,8-DNP6), Metabolic Activation: NONE, Method: PREINCUBATION) was “active; positive”, the mutagenic call (Test System: AMES SALMONELLA TYPHIMURIUM, Strain/Indicator: TA98(1,8-DNP6), Metabolic Activation: NONE, Method: SUSPENSION) was “active; positive” and the mutagenic call (Test System: AMES SALMONELLA TYPHIMURIUM, Strain/Indicator: TA98(1,8-DNP6), Metabolic Activation: RAT, LIVER, S-9, PCB (5%), Method: PREINCUBATION) was “active; positive”. The mutagenic call (Test System: AMES SALMONELLA TYPHIMURIUM, Strain/Indicator: TA98(NR), Metabolic Activation: NONE, Method: PREINCUBATION) was “inactive; negative”, the mutagenic call (Test System: AMES SALMONELLA TYPHIMURIUM, Strain/Indicator: TA98(NR), Metabolic Activation: NONE, Method: SUSPENSION) was “inactive; negative” and the mutagenic call (Test System: AMES SALMONELLA TYPHIMURIUM, Strain/Indicator: TA98(NR), Metabolic Activation: RAT, LIVER, S-9 (10%), Method: PREINCUBATION) was “active; positive”. The mutagenic call (Test System: AMES SALMONELLA TYPHIMURIUM, Strain/Indicator: TA98(NR), Metabolic Activation: RAT, LIVER, S-9, 3-METHYLCHOLANTHRENE (10%), Method: PREINCUBATION) was “active; positive”, the mutagenic call (Test System: AMES SALMONELLA TYPHIMURIUM, Strain/Indicator: TA98(NR), Metabolic Activation: RAT, LIVER, S-9, BETA-NAPHTHOFLAVONE (10%), Method: PREINCUBATION) was “active; positive” and the mutagenic call (Test System: AMES SALMONELLA TYPHIMURIUM, Strain/Indicator: TA98(NR), Metabolic Activation: RAT, LIVER, S-9, PCB (5 OR 10%), Method: PREINCUBATION) was “active; positive”. For the same molecule, the mutagenic call (Test System: AMES SALMONELLA TYPHIMURIUM, Strain/Indicator: TA98(NR), Metabolic Activation: RAT, LIVER, S-9, PHENOBARBITAL (10%), Method: PREINCUBATION) was “active; positive”, the mutagenic call [1] was “active; positive” and the mutagenic call (Test System: AMES SALMONELLA TYPHIMURIUM, Strain/Indicator: TA98, Metabolic Activation: NONE, Method: SUSPENSION) was “active; positive”. The mutagenic call (Test System: AMES SALMONELLA TYPHIMURIUM, Strain/Indicator: TA98, Metabolic Activation: RAT, LIVER, S-9, PCB (5%), Method: PREINCUBATION) was “active; positive”, the mutagenic call (Test System: AMES SALMONELLA TYPHIMURIUM, Strain/Indicator: TA98, Metabolic Activation: RAT, LIVER, S-9, PCB, Method: SUSPENSION) was “active; positive” and the mutagenic call [2] was “inactive; negative”. For the same molecule, the mutagenic call (Test System: AMES SALMONELLA TYPHIMURIUM, Strain/Indicator: TA100, Metabolic Activation: NONE, Method: SUSPENSION) was “inactive; negative”, the mutagenic call (Test System: AMES SALMONELLA TYPHIMURIUM, Strain/Indicator: TA100, Metabolic Activation: RAT, LIVER, S-9, PCB (5%), Method: PREINCUBATION) was “inactive; negative” and the mutagenic call (Test System: AMES SALMONELLA TYPHIMURIUM, Strain/Indicator: TA100, Metabolic Activation: RAT, LIVER, S-9, PCB, Method: SUSPENSION) was “active; positive”.

With `O=C(O)C(F)(F)C(F)(Cl)C(F)(F)C(F)(Cl)C(F)(F)Cl` (stereo unspecified) the mutagenic call [1] was “inactive; negative”, the mutagenic call (Test System: AMES SALMONELLA TYPHIMURIUM, Strain/Indicator: TA98, Metabolic Activation: RAT, LIVER, S-9, Method: PREINCUBATION) was “inactive; negative” and the mutagenic call [2] was “inactive; negative”. The mutagenic call (Test System: AMES SALMONELLA TYPHIMURIUM, Strain/Indicator: TA100, Metabolic Activation: RAT, LIVER, S-9, Method: PREINCUBATION) was “inactive; negative”, the mutagenic call (Test System: AMES SALMONELLA TYPHIMURIUM, Strain/Indicator: TA1535, Metabolic Activation: NONE, Method: PREINCUBATION) was “inactive; negative” and the mutagenic call (Test System: AMES SALMONELLA TYPHIMURIUM, Strain/Indicator: TA1535, Metabolic Activation: RAT, LIVER, S-9, Method: PREINCUBATION) was “inactive; negative”. For the same molecule, the mutagenic call (Test System: AMES SALMONELLA TYPHIMURIUM, Strain/Indicator: TA1537, Metabolic Activation: NONE, Method: PREINCUBATION) was “inactive; negative”, the mutagenic call (Test System: AMES SALMONELLA TYPHIMURIUM, Strain/Indicator: TA1537, Metabolic Activation: RAT, LIVER, S-9, Method: PREINCUBATION) was “inactive; negative” and the mutagenic call (Test System: AMES SALMONELLA TYPHIMURIUM, Strain/Indicator: TA1538, Metabolic Activation: NONE, Method: PREINCUBATION) was “inactive; negative”. For the same molecule, the mutagenic call (Test System: AMES SALMONELLA TYPHIMURIUM, Strain/Indicator: TA1538, Metabolic Activation: RAT, LIVER, S-9, Method: PREINCUBATION) was “inactive; negative”, the mutagenic call (Test System: CHINESE HAMSTER OVARY, Strain/Indicator: CHO-K1-BH4 (HGPRT), Metabolic Activation: NONE, Method: STANDARD PLATE) was “inactive; negative” and the mutagenic call (Test System: CHINESE HAMSTER OVARY, Strain/Indicator: CHO-K1-BH4 (HGPRT), Metabolic Activation: RAT, LIVER, S-9, Method: STANDARD PLATE) was “inactive; negative”. The mutagenic call (Test System: UDS RODENT HEPATOCYTES, Strain/Indicator: THY INCORP (NON-S-PHASE), Metabolic Activation: NONE, Method: AUTORADIOGRAPHY) was “inactive; negative”.

With `C=C1/C(=C\C=C2/CCC[C@]3(C)[C@@H]([C@H](C)CC[C@@H](O)C(C)C)CC[C@@H]23)C[C@@H](O)C[C@@H]1O` the mutagenic call [3] was “inactive; negative”, the mutagenic call (Test System: AMES SALMONELLA TYPHIMURIUM, Strain/Indicator: TA98, Metabolic Activation: RAT, LIVER, S-9, PHENOBARBITAL AND 5,6-BENZOFLAVONE, Method: PREINCUBATION) was “inactive; negative” and the mutagenic call [4] was “inactive; negative”. For the same molecule, the mutagenic call (Test System: AMES SALMONELLA TYPHIMURIUM, Strain/Indicator: TA100, Metabolic Activation: RAT, LIVER, S-9, PHENOBARBITAL AND 5,6-BENZOFLAVONE, Method: PREINCUBATION) was “inactive; negative”, the mutagenic call (Test System: AMES SALMONELLA TYPHIMURIUM, Strain/Indicator: TA1535, Metabolic Activation: NONE, Method: STANDARD PLATE) was “inactive; negative” and the mutagenic call (Test System: AMES SALMONELLA TYPHIMURIUM, Strain/Indicator: TA1535, Metabolic Activation: RAT, LIVER, S-9, PHENOBARBITAL AND 5,6-BENZOFLAVONE, Method: PREINCUBATION) was “inactive; negative”. For the same molecule, the mutagenic call (Test System: AMES SALMONELLA TYPHIMURIUM, Strain/Indicator: TA1537, Metabolic Activation: NONE, Method: STANDARD PLATE) was “inactive; negative”, the mutagenic call (Test System: AMES SALMONELLA TYPHIMURIUM, Strain/Indicator: TA1537, Metabolic Activation: RAT, LIVER, S-9, PHENOBARBITAL AND 5,6-BENZOFLAVONE, Method: PREINCUBATION) was “inactive; negative” and the mutagenic call (Test System: AMES SALMONELLA TYPHIMURIUM, Strain/Indicator: TA1538, Metabolic Activation: NONE, Method: STANDARD PLATE) was “inactive; negative”. The mutagenic call (Test System: AMES SALMONELLA TYPHIMURIUM, Strain/Indicator: TA1538, Metabolic Activation: RAT, LIVER, S-9, PHENOBARBITAL AND 5,6-BENZOFLAVONE, Method: PREINCUBATION) was “inactive; negative”, the mutagenic call (Test System: E. COLI, Strain/Indicator: WP2 UVRA, Metabolic Activation: NONE, Method: STANDARD PLATE) was “inactive; negative” and the mutagenic call (Test System: E. COLI, Strain/Indicator: WP2 UVRA, Metabolic Activation: RAT, LIVER, S-9, PHENOBARBITAL AND 5,6-BENZOFLAVONE, Method: PREINCUBATION) was “inactive; negative”.

In the case of `CC1c2ccccc2-c2ccc(F)cc21` (stereo unspecified), the mutagenic call (Test System: AMES SALMONELLA TYPHIMURIUM, Strain/Indicator: TA100, Metabolic Activation: RAT, LIVER, S-9, AROCLOR 1254, Method: STANDARD PLATE) is reported as “active; positive”.

With `ClCc1cc2cc3ccccc3c3ccc4cccc1c4c23` the mutagenic call [3] was “active; positive” and the mutagenic call [4] was “active; positive”.
